Each block holds one compound with its values, some of them ahead of it.
Assays:
[1] = (§1) The drug is tested on WLS-370 corresponding to human gut metagenome with ENA study accession number: PRJEB37062 and ENA sample accession number: ERS12561793 for biotransformation under anaerobic condition. The drug concentrations were measured over 9 timepoints collected between 0 and 24 hours of incubation by liquid-chromatography-coupled mass spectrometry (LC–MS); conditions: 2 µM
[2] = as §1, with “WLS-052” for “WLS-370”, “ERS12561747” for “ERS12561793”; conditions: 2 µM
[3] = human gut metagenome, 24 h, 2 µM
[4] = as §1, with “WLS-006” for “WLS-370”, “ERS12561741” for “ERS12561793”; conditions: 2 µM
[5] = human gut metagenome, 24 h, 2 µM; remark: listed apart in the source
[6] = human gut metagenome, 24 h, 2 µM; remark: listed apart in the source
[7] = human gut metagenome, 24 h, 2 µM; remark: listed apart in the source
[8] = human gut metagenome, 24 h, 2 µM; remark: listed apart in the source
[9] = human gut metagenome, 24 h, 2 µM; remark: listed apart in the source
[10] = human gut metagenome, 24 h, 2 µM; remark: listed apart in the source
[11] = human gut metagenome, 24 h, 2 µM; remark: listed apart in the source
[12] = human gut metagenome, 24 h, 2 µM; remark: listed apart in the source
[13] = human gut metagenome, 24 h, 2 µM; remark: listed apart in the source
[14] = human gut metagenome, 24 h, 2 µM; remark: listed apart in the source
[15] = human gut metagenome, 24 h, 2 µM; remark: listed apart in the source
[16] = as §1, with “WLS-069” for “WLS-370”, “ERS12561748” for “ERS12561793”; conditions: 2 µM
[17] = human gut metagenome, 24 h, 2 µM; remark: listed apart in the source
[18] = as §1, with “WLS-220” for “WLS-370”, “ERS12561769” for “ERS12561793”; conditions: 2 µM
[19] = as §1, with “WLS-077” for “WLS-370”, “ERS12561750” for “ERS12561793”; conditions: 2 µM
[20] = human gut metagenome, 24 h, 2 µM; remark: listed apart in the source
[21] = human gut metagenome, 24 h, 2 µM; remark: listed apart in the source
[22] = human gut metagenome, 24 h, 2 µM; remark: listed apart in the source
[23] = human gut metagenome, 24 h, 2 µM; remark: listed apart in the source
[24] = human gut metagenome, 24 h, 2 µM; remark: listed apart in the source
[25] = as §1, with “WLS-039” for “WLS-370”, “ERS12561746” for “ERS12561793”; conditions: 2 µM
[26] = human gut metagenome, 24 h, 2 µM; remark: listed apart in the source
[27] = human gut metagenome, 24 h, 2 µM; remark: listed apart in the source
[28] = human gut metagenome, 24 h, 2 µM; remark: listed apart in the source
[29] = human gut metagenome, 24 h, 2 µM; remark: listed apart in the source
[30] = as §1, with “WLS-170” for “WLS-370”, “ERS12561762” for “ERS12561793”; conditions: 2 µM
[31] = human gut metagenome, 24 h, 2 µM; remark: listed apart in the source
[32] = human gut metagenome, 24 h, 2 µM; remark: listed apart in the source
[33] = as §1, with “WLS-240” for “WLS-370”, “ERS12561773” for “ERS12561793”; conditions: 2 µM
[34] = human gut metagenome, 24 h, 2 µM; remark: listed apart in the source
[35] = human gut metagenome, 24 h, 2 µM; remark: listed apart in the source
[36] = human gut metagenome, 24 h, 2 µM; remark: listed apart in the source
[37] = as §1, with “WLS-350” for “WLS-370”, “ERS12561789” for “ERS12561793”; conditions: 2 µM
[38] = as §1, with “WLS-082” for “WLS-370”, “ERS12561751” for “ERS12561793”; conditions: 2 µM
[39] = human gut metagenome, 24 h, 2 µM; remark: listed apart in the source
[40] = as §1, with “WLS-073” for “WLS-370”, “ERS12561749” for “ERS12561793”; conditions: 2 µM
[41] = human gut metagenome, 24 h, 2 µM; remark: listed apart in the source
[42] = human gut metagenome, 24 h, 2 µM; remark: listed apart in the source
[43] = human gut metagenome, 24 h, 2 µM; remark: listed apart in the source
[44] = as §1, with “WLS-086” for “WLS-370”, “ERS12561752” for “ERS12561793”; conditions: 2 µM
[45] = human gut metagenome, 24 h, 2 µM; remark: listed apart in the source
[46] = human gut metagenome, 24 h, 2 µM; remark: listed apart in the source
[47] = human gut metagenome, 24 h, 2 µM; remark: listed apart in the source
[48] = human gut metagenome, 24 h, 2 µM; remark: listed apart in the source
[49] = as §1, with “WLS-038” for “WLS-370”, “ERS12561745” for “ERS12561793”; conditions: 2 µM
[50] = as §1, with “WLS-090” for “WLS-370”, “ERS12561753” for “ERS12561793”; conditions: 2 µM
[51] = human gut metagenome, 24 h, 2 µM; remark: listed apart in the source
[52] = human gut metagenome, 24 h, 2 µM; remark: listed apart in the source
[53] = as §1, with “WLS-310” for “WLS-370”, “ERS12561785” for “ERS12561793”; conditions: 2 µM
[54] = as §1, with “WLS-007” for “WLS-370”, “ERS12561742” for “ERS12561793”; conditions: 2 µM
[55] = human gut metagenome, 24 h, 2 µM; remark: listed apart in the source
[56] = human gut metagenome, 24 h, 2 µM; remark: listed apart in the source
[57] = as §1, with “WLS-098” for “WLS-370”, “ERS12561754” for “ERS12561793”; conditions: 2 µM
[58] = as §1, with “WLS-027” for “WLS-370”, “ERS12561744” for “ERS12561793”; conditions: 2 µM
[59] = human gut metagenome, 24 h, 2 µM; remark: listed apart in the source
[60] = as §1, with “WLS-010” for “WLS-370”, “ERS12561743” for “ERS12561793”; conditions: 2 µM
Further: call rule not given here.

Bacterial Biotransformation [1]: Compound metabolized
Bacterial Biotransformation [2]: Compound metabolized
Bacterial Biotransformation [3]: Compound metabolized
Bacterial Biotransformation [4]: Compound metabolized
Bacterial Biotransformation [5]: Compound metabolized
Bacterial Biotransformation [6]: Compound metabolized
Bacterial Biotransformation [7]: Compound NOT metabolized
Bacterial Biotransformation [8]: Compound metabolized
Bacterial Biotransformation [9]: Compound metabolized
Bacterial Biotransformation [10]: Compound metabolized
Bacterial Biotransformation [11]: Compound metabolized
Bacterial Biotransformation [12]: Compound metabolized
Bacterial Biotransformation [13]: Compound metabolized
Bacterial Biotransformation [14]: Compound NOT metabolized
Bacterial Biotransformation [15]: Compound metabolized
Bacterial Biotransformation [16]: Compound metabolized
Bacterial Biotransformation [17]: Compound metabolized
Bacterial Biotransformation [18]: Compound metabolized
Bacterial Biotransformation [19]: Compound NOT metabolized
Bacterial Biotransformation [20]: Compound metabolized
Bacterial Biotransformation [21]: Compound NOT metabolized
Bacterial Biotransformation [22]: Compound NOT metabolized
Bacterial Biotransformation [23]: Compound metabolized
Bacterial Biotransformation [24]: Compound metabolized
Bacterial Biotransformation [25]: Compound metabolized
Bacterial Biotransformation [26]: Compound NOT metabolized
Bacterial Biotransformation [27]: Compound metabolized
Bacterial Biotransformation [28]: Compound metabolized
Bacterial Biotransformation [29]: Compound metabolized
Bacterial Biotransformation [30]: Compound metabolized
Bacterial Biotransformation [31]: Compound metabolized
Bacterial Biotransformation [32]: Compound metabolized
Bacterial Biotransformation [33]: Compound metabolized
Bacterial Biotransformation [34]: Compound metabolized
Bacterial Biotransformation [35]: Compound metabolized
Bacterial Biotransformation [36]: Compound metabolized
Bacterial Biotransformation [37]: Compound metabolized
Bacterial Biotransformation [38]: Compound metabolized
Bacterial Biotransformation [39]: Compound metabolized
Bacterial Biotransformation [40]: Compound metabolized
Bacterial Biotransformation [41]: Compound metabolized
Bacterial Biotransformation [42]: Compound metabolized
Bacterial Biotransformation [43]: Compound metabolized
Bacterial Biotransformation [44]: Compound metabolized
Bacterial Biotransformation [45]: Compound metabolized
Bacterial Biotransformation [46]: Compound metabolized
Bacterial Biotransformation [47]: Compound metabolized
Bacterial Biotransformation [48]: Compound metabolized
Bacterial Biotransformation [49]: Compound metabolized
Bacterial Biotransformation [50]: Compound metabolized
Bacterial Biotransformation [51]: Compound metabolized
Bacterial Biotransformation [52]: Compound metabolized
Bacterial Biotransformation [53]: Compound metabolized
Bacterial Biotransformation [54]: Compound NOT metabolized
Bacterial Biotransformation [55]: Compound metabolized
Bacterial Biotransformation [56]: Compound metabolized
Bacterial Biotransformation [57]: Compound metabolized
Bacterial Biotransformation [58]: Compound metabolized
Bacterial Biotransformation [59]: Compound metabolized
Bacterial Biotransformation [60]: Compound metabolized
Structure (SMILES): CN1CCN(CC/C=C2/c3ccccc3Sc3ccc(S(=O)(=O)N(C)C)cc32)CC1 [THIOTHIXENE]

Bacterial Biotransformation [1]: Compound NOT metabolized
Bacterial Biotransformation [2]: Compound metabolized
Bacterial Biotransformation [3]: Compound NOT metabolized
Bacterial Biotransformation [4]: Compound metabolized
Bacterial Biotransformation [5]: Compound metabolized
Bacterial Biotransformation [6]: Compound metabolized
Bacterial Biotransformation [7]: Compound NOT metabolized
Bacterial Biotransformation [8]: Compound NOT metabolized
Bacterial Biotransformation [9]: Compound NOT metabolized
Bacterial Biotransformation [10]: Compound metabolized
Bacterial Biotransformation [11]: Compound NOT metabolized
Bacterial Biotransformation [12]: Compound NOT metabolized
Bacterial Biotransformation [13]: Compound NOT metabolized
Bacterial Biotransformation [14]: Compound NOT metabolized
Bacterial Biotransformation [15]: Compound metabolized
Bacterial Biotransformation [16]: Compound metabolized
Bacterial Biotransformation [17]: Compound NOT metabolized
Bacterial Biotransformation [18]: Compound metabolized
Bacterial Biotransformation [19]: Compound NOT metabolized
Bacterial Biotransformation [20]: Compound metabolized
Bacterial Biotransformation [21]: Compound NOT metabolized
Bacterial Biotransformation [22]: Compound metabolized
Bacterial Biotransformation [23]: Compound NOT metabolized
Bacterial Biotransformation [24]: Compound metabolized
Bacterial Biotransformation [25]: Compound metabolized
Bacterial Biotransformation [26]: Compound metabolized
Bacterial Biotransformation [27]: Compound NOT metabolized
Bacterial Biotransformation [28]: Compound metabolized
Bacterial Biotransformation [29]: Compound metabolized
Bacterial Biotransformation [30]: Compound metabolized
Bacterial Biotransformation [31]: Compound NOT metabolized
Bacterial Biotransformation [32]: Compound metabolized
Bacterial Biotransformation [33]: Compound metabolized
Bacterial Biotransformation [34]: Compound NOT metabolized
Bacterial Biotransformation [35]: Compound metabolized
Bacterial Biotransformation [36]: Compound metabolized
Bacterial Biotransformation [37]: Compound metabolized
Bacterial Biotransformation [38]: Compound metabolized
Bacterial Biotransformation [39]: Compound NOT metabolized
Bacterial Biotransformation [40]: Compound metabolized
Bacterial Biotransformation [41]: Compound metabolized
Bacterial Biotransformation [42]: Compound NOT metabolized
Bacterial Biotransformation [43]: Compound metabolized
Bacterial Biotransformation [44]: Compound metabolized
Bacterial Biotransformation [45]: Compound metabolized
Bacterial Biotransformation [46]: Compound metabolized
Bacterial Biotransformation [47]: Compound metabolized
Bacterial Biotransformation [48]: Compound NOT metabolized
Bacterial Biotransformation [49]: Compound metabolized
Bacterial Biotransformation [50]: Compound metabolized
Bacterial Biotransformation [51]: Compound metabolized
Bacterial Biotransformation [52]: Compound NOT metabolized
Bacterial Biotransformation [53]: Compound metabolized
Bacterial Biotransformation [54]: Compound NOT metabolized
Bacterial Biotransformation [55]: Compound metabolized
Bacterial Biotransformation [56]: Compound NOT metabolized
Bacterial Biotransformation [57]: Compound metabolized
Bacterial Biotransformation [58]: Compound metabolized
Bacterial Biotransformation [59]: Compound metabolized
Bacterial Biotransformation [60]: Compound NOT metabolized
Structure (SMILES): CS(=O)(=O)O.O.O.O.O=C1Cc2cc(CCN3CCN(c4nsc5ccccc45)CC3)c(Cl)cc2N1 [ZIPRASIDONE MESYLATE]
